Experimental data reported in patent US20240124503A1, “HETEROAROMATIC PHOSPHONIUM SALTS AND THEIR USE TREATING CANCER” (FLORATEK PHARMA S.A., priority 2021, published 2024).

Key:
Assay type in all cases: cell-based
ovarian cancer cell = test: Cell viability, ovarian cancer cells (panel statement); settings: Table 17; read-out: IC50, ovarian cancer cell growth
Description: (§1) Antitumor activity of the compounds and doxorubicin as a positive control was assessed by using the CellTiter-Blue Cell Viability Assay (Promega, #G8082) or CellTiter-Glow® Luminescent Cell Viability assay (Promega #G7572) according to the manufacturer's instructions. The compounds were tested at 5 or 6 concentrations in half-log increments (highest concentration 30 μM or 100 μM) in duplicate or triplicate well conditions.
(§2) Tumor cells were grown at 37° C. in a humidified atmosphere with 5% CO2 in RPMI 1640 or DMEM medium, supplemented with 10% (v/v) fetal calf serum and 50 μg/ml gentamicin for up to 20 passages, and were passaged once or twice weekly. Cells were harvested using TrypLE or PBS buffer containing 1 mM EDTA, and the percentage of viable cells was determined using a CASY Model TI cell counter (OMNI Life Science). Cells were harvested from exponential phase cultures, counted and plated in 96 well flat-bottom microtiter plates at a cell density depending on the cell line's growth rate (4,000-20,000 cells/well depending on the cell line's growth rate, up to 60,000 for hematological cancer cell lines) in RPMI 1640 or DMEM medium supplemented with 10% (v/v) fetal calf serum and 50 μg/ml gentamicin (140 μl/well). […] Viability of cells was quantified by the CellTiter-Blue® cell viability assay (Promega G8081) or CellTiter-Glow® Luminescent Cell Viability assay (Promega #G7572). […]

BT-474 = test: Cell viability assay, BT-474; settings: Homo sapiens; breast carcinoma cell line BT-474
Description: as §1, §2

T47D = test: Cell viability assay, T47D; settings: Homo sapiens; breast carcinoma cell line T47D
Description: as §1, §2

pancreatic PDX = test: Cell viability, pancreatic PDX (panel statement); settings: Table 19; read-out: IC50, pancreatic PDX growth
Description: PDX-derived cell cultures were obtained from tumors explanted from mice and isolated by mechanical and enzymatic dissociation. […] Cells were harvested and seeded in 96-wells plates at a density of 1.25 to 5×10^3 cells/well for cytotoxicity assays. Cells were incubated 48 h at 37° C. prior to addition of test molecules and vehicle (DMSO, 0.1%) at desired final concentrations. Cell viability was assessed before drugs' addition (To) and 5 days after test molecules addition by measuring ATP cell content using CellTiter-Glo® Luminescent Cell Viability Assay (Promega) according to the manufacturer's instructions. Luciferase activity was measured on a luminometer (PerkinElmer® EnVision™). Each concentration of compounds was tested in triplicate.
Viability was calculated as a percentage of ATP value compared to vehicle treated controls.
For PDX primary cell cultures, the tumour tissue was washed with PBS containing antibiotic-antimycotic and non-tumour tissue and necrotic tumour tissues were separated. The tumour tissue was transferred to a new dish and cut into 1˜2 mm^3 fragments, resuspended in RPMI-1640 medium and centrifuged at 1,200 rpm for 6 min at room temperature. The pelleted material was resuspended with 15 mL of Tumour Cell Digestion Solution and incubated at 37° C. for 1 hour with agitation. […]

parental H69 cells = test: Cell viability assay, parental H69 cells; settings: Homo sapiens, NCI-H69; parental H69 cells (SCLC)
Description: as §1, §2

MDA-MB-231 = test: Cell viability assay, MDA-MB-231; settings: Homo sapiens; breast carcinoma cell line MDA-MB-231
Description: as §1, §2

U-251 = test: Cell viability assay, U-251; settings: Homo sapiens; brain carcinoma cell line U-251
Description: as §1, §2

prostate cancer cell = test: Cell viability, prostate cancer cells (panel statement); settings: summary of Table 20; read-out: IC50, prostate cancer cell growth
Description: as §1, §2

H69AR = test: Cell viability assay, H69AR; settings: SCLC doxorubicin resistant cell line H69AR
Description: as §1, §2

IC50 (ovarian cancer cell) [µM] | IC50 (BT-474) [µM] | IC50 (T47D) [µM] | IC50 (MDA-MB-231) [µM] | IC50 (U-251) [µM] | IC50 (prostate cancer cell) [µM] | Structure (SMILES) | IC50 (pancreatic PDX) [µM] | IC50 (parental H69 cells) [µM] | IC50 (H69AR) [µM]
< 20 | 1.9 | 1.3 | 3.5 | 7.54 | < 10 | COc1c(O)ccc2c(=O)c(O)c(-c3ccc(CCCC[P+](c4ccccc4)(c4ccccc4)c4ccccc4)cc3)oc12 [SND190, (4-(4-(3,7-Dihydroxy-8-methoxy-4-oxo-4H1-chromen-2-yl)phenyl)butyl)triphenylphosphonium bromide] | < 10 | 1.42 | 
 |  |  |  |  |  | O=c1cc(-c2ccc(CCC[P+](c3ccccc3)(c3ccccc3)c3ccccc3)cc2)oc2c(O)c(O)ccc12 [SND200, (3-(4-(7,8-Dihydroxy-4-oxo-4H1-chromen-2-yl)phenyl)propyl)triphenylphosphonium bromide] |  |  | 4 to 25
